Columns and labels:
SR Ca2+ pump (SERCA2a) = biological target: T1, SR Ca2+ pump (SERCA2a) (Mus musculus, UniProt O55143); test: ATP-dependent Ca2+ uptake by murine cardiac SR vesicles (stopped-flow, arsenazo III); type: biochemical; set-up: total Ca2+ uptake at equilibrium: unit not given here
T1 construct: Crude cardiac microsomal vesicles containing fragmented sarcoplasmic reticulum (SR) were prepared; from tissue; host or cells: pooled hearts of C57 male mice (crude SR microsomal vesicles)
Procedure: Crude cardiac microsomal vesicles containing fragmented sarcoplasmic reticulum (SR) were prepared as previously described for rat heart. Froehlich, J. P. et al., J. Mol. Cell. Cardiol., 10, 427-438 (1978). Pooled hearts from C57 male mice sacrificed by cervical dislocation were placed in 0.9% saline on ice, trimmed of atrial and connective tissue, and weighed. The finely minced heart muscle was homogenized in 10 mM NaHCO3 using a Polytron blender and the SR vesicles were separated from the myofilaments, mitochondria and nuclear membranes by differential centrifugation at 8,500 and 45,000×g. SR vesicles suspended in 0.25 M sucrose+10 mM MOPS, pH 7.0 were frozen and stored in liquid nitrogen prior to use. Twenty minutes prior to measuring Ca^2+ uptake, cardiac SR vesicles (1 mg/ml in storage buffer) were incubated with 250 μM AS delivered from a freshly-prepared 10 mM stock solution of AS (Na2N2O3) dissolved in 10 mM NaOH. […] Stopped-flow mixing was used to measure the initial time course of Ca^2+ accumulation by murine cardiac SR vesicles using the Ca^2+ indicator dye, arsenazo III. Membrane vesicles (0.4 mg/ml) suspended in a medium containing 100 mM KCl, 1 mM MgCl2, 50 μM arsenazo III, 5 mM sodium azide, and 20 mM MOPS, pH 7.4, were mixed with an equal volume of an identical medium containing 1 mM Na2ATP at 24° C. in a manually-operated stopped-flow apparatus (Applied Photophysics, Ltd.). The change in [Ca^2+] in the mixing cuvette was monitored using a single-beam UV-VIS spectrophotometer (AVIV, Model 14DS) with a monochromator setting of 650 nm. The total [Ca^2+] in the uptake medium was 0.5 μM, yielding a free [Ca^2+] in equilibrium with the Ca-arsenazo III complex of 0.2 μM (KA=3.3×10^4 M^−1). […] The time-dependent decrease in absorbance at 650 nm, reflecting Ca^2+ uptake by the SR vesicles, was monitored for 30-60 s at 0.1 s intervals. […] The signal change due to vesicle light scattering was evaluated from separate measurements conducted under identical conditions at the isosbestic wavelength of 693 nm. For evaluation of the time course of Ca^2+ uptake, a representative trace at 693 nm was subtracted from each of the individual traces at 650 nm acquired under identical conditions. The kinetic and thermodynamic parameters for Ca^2+ uptake were evaluated by fitting stopped-flow signals to one- and two-exponential decay functions plus a residual term using non-linear regression (Prism, Version 3.03). Residual plots of the difference between the fitted curve and data points were used to evaluate systematic errors in the fits and to calculate the sum-of-squares error used in selecting the best fit.
To test whether HNO directly enhances SR Ca^2+ uptake, its effects on SR membrane vesicles isolated from pooled C57/Bl6 mouse hearts were studied. Crude SR microsomal vesicles were incubated with 250 μM AS prior to measuring ATP-dependent Ca uptake by stopped-flow mixing at 24° C. Arsenazo III, a mid-range Ca indicator, was used to monitor Ca removal from the eravesicular compartment and buffer the free [Ca^2+] at a level producing half-saturation of the Ca^2+ pump (˜0.2 μM).

isolated mouse myocytes = test: SR Ca2+ stores by rapid caffeine infusion in mouse myocytes; type: cell-based; conditions: 1 mM AS; caffeine alone 223±34; n=8
Procedure: Nitroxyl (HNO) confers positive inotropy in vivo. Here, it was determined whether HNO action stems from a direct influence on sarcoplasmic reticulum (SR) Ca^2+ cycling, involving enhanced Ca^2+ release from ryanodine receptors (RyR2). Myocytes were isolated from ST mice, suspended in Tyrode's solution (1 mM Ca^2+) and field stimulated (0.5 Hz, 25° C.). Sarcomere shortening (SS) was assessed by real-time image analysis, Ca^2+ transients from Indo-1 fluorescence. RyR2 activity was determined by optical imaging of Ca^2+ release from single Ca^2+ release units. The HNO donor Angeli's Salt (AS) induced dose-dependent inotropy (SS: 73±31% at 0.5 mM; 131±31% at 1 mM; all n=15, p<0.05 vs. base; <0.1 mM: no effect). In contrast, the NO donor DEA/NO reduced SS by 55-65% at 5-50 μM (both p<0.05 vs. base), with no effect at higher doses. […] However, co-infusion with the thiol-donating compound N-acetyl-L-cysteine (NAC, 3 mM) abolished AS inotropy.

SERCA2a = biological target: T2, SERCA2a (Canis lupus familiaris, UniProt O46674); test: Ca-ATPase partial reactions and Vmax in cardiac SR vesicles from normal and failing dog hearts; type: biochemical; conditions: for stimulation of maximal Ca-ATPase activity compared to control / spontaneous E2P hydrolysis rate: 0.25 mM AS; for stimulation of maximal Ca-ATPase activity compared to control: 2.5 mM oxalate
T2 construct: sealed cardiac sarcoplasmic reticulum (CSR) membrane vesicles isolated from normal (N) and failing (F); from tissue; host or cells: dog heart, normal and tachy-pacing-induced failing (sealed cardiac SR vesicles)
Procedure: The effect of AS on Ca-ATPase partial reactions and Vmax was measured in sealed cardiac sarcoplasmic reticulum (CSR) membrane vesicles isolated from normal (N) and failing (F) (tachy-pacing-induced) dog hearts. […] In the presence of 2.5 mM oxalate (Ca^2+-loading conditions), 0.25 mM AS stimulated maximal Ca-ATPase activity in N and F CSR (4% vs. 9% compared to control). […] This relieves back inhibition of SERCA2a by the Ca^2+ transport gradient, increasing Vmax.

T2 sequence (O46674 whole entry): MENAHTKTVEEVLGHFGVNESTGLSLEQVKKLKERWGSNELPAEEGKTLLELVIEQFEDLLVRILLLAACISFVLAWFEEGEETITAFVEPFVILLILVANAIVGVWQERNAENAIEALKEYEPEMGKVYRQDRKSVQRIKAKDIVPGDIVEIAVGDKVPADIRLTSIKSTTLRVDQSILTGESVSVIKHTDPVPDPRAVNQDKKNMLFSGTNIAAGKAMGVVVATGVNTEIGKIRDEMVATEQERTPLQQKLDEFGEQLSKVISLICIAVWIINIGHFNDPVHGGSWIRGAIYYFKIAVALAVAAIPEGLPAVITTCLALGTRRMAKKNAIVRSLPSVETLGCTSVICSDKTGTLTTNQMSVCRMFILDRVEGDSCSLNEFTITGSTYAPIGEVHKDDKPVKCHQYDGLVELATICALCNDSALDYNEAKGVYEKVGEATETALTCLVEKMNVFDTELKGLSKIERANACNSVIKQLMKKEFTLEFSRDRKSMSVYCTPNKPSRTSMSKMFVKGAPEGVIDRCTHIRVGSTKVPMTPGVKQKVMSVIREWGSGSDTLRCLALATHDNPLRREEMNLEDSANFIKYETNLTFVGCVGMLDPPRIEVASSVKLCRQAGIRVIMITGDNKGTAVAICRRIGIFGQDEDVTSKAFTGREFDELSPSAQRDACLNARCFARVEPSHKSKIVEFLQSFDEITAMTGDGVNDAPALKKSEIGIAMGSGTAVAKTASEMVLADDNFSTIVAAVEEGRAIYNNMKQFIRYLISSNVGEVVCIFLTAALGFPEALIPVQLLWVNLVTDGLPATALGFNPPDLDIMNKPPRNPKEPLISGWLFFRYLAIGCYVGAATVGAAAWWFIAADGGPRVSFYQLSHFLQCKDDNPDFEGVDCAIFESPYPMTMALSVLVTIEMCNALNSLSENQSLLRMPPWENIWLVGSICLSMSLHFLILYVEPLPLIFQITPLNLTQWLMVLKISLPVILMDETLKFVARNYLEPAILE
T1 sequence (O55143 1-998 isoform O55143-2): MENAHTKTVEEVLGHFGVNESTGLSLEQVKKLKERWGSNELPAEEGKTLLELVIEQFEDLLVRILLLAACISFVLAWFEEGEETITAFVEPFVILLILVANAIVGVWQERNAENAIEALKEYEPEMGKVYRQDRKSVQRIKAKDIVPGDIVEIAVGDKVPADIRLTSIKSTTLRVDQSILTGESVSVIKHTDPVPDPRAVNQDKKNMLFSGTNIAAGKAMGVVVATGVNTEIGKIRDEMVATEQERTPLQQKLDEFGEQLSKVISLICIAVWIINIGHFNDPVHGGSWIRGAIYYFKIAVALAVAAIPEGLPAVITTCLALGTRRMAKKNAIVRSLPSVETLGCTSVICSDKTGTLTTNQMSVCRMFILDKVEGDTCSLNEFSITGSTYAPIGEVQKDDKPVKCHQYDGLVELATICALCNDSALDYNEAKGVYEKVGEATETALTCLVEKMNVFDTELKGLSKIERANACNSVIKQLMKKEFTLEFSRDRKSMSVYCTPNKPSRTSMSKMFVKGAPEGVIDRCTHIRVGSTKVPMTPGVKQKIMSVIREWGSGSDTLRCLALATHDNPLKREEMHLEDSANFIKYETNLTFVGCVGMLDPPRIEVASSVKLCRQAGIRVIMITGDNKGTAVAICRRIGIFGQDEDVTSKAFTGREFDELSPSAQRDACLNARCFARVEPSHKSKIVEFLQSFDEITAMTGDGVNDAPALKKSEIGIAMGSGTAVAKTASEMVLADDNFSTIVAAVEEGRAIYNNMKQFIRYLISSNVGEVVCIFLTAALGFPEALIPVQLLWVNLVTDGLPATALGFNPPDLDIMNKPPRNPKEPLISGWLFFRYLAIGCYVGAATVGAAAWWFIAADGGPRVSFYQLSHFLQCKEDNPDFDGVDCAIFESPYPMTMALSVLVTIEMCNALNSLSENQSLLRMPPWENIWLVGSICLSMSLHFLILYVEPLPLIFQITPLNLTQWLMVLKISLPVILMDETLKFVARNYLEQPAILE

increase of rate constant for Ca2+ uptake (SR Ca2+ pump (SERCA2a); 250 μM AS, 0.2 μM free Ca2+, 24° C., n=6): 104%
rate constant for Ca2+ uptake (SR Ca2+ pump (SERCA2a); 250 μM AS, without AS 0.1563): 0.3204 s⁻¹
rate of initial Ca2+ uptake (SR Ca2+ pump (SERCA2a); AS 250 μM): enhanced
total Ca2+ uptake at equilibrium (SR Ca2+ pump (SERCA2a); after AS exposure, before 0.00257±0.0003, p=NS): 0.00202±0.000
SR Ca2+ uptake activity after AS solution decayed completely to products (SR Ca2+ pump (SERCA2a); decayed AS test solution (e.g. nitrite)): No stimulation
Vmax stimulation in presence of Ca2+ ionophore A23187 (SERCA2a; AS with A23187): abolished
stimulation of maximal Ca-ATPase activity compared to control (SERCA2a; F CSR): 9%
stimulation of maximal Ca-ATPase activity compared to control (SERCA2a; N CSR): 4%
Vmax stimulation (SERCA2a; N CSR, AS, without oxalate): 27%
spontaneous E2P hydrolysis rate (SERCA2a; failing (F) CSR, without AS 11): 111 s⁻¹
spontaneous E2P hydrolysis rate (SERCA2a; normal (N) CSR, without AS 12): 76 s⁻¹
SMILES: [Na+].[Na+].[O-][N+]([O-])=NO [AS, Angeli's salt]
SR Ca2+ stores (% [Ca2+]i on caffeine) (isolated mouse myocytes): 138±17%

Reference: patent US20160166604A1, “Thiol-Sensitive Positive Inotropes” (priority 2005, published 2016)
